Reference: patent US5681826A, “Saccharide composition with reduced reducibility, and preparation and uses thereof” (Kabushiki Kaisha Hayashibara Seibutsu Kagaku Kenkyujo, priority 1994, dated 1997)

Key:
glucoamylase = assay: Enzymatic hydrolysis by glucoamylase; type: biochemical; details: for Glucose / Molecular ratio (Glucose/Trehalose) / Trehalose: one unit glucoamylase, pH 4.5, 40°C., 6 hours
Procedure: Fifty mg aliquots of non-reducing saccharide preparations P I, P II, P III, P IV and P V in Experiment 4 were respectively dissolved in one ml of 50 mM acetate buffer (pH 4.5), admixed with one unit of glucoamylase commercialized by Seikagaku-Kogyo Co., Ltd., Tokyo, Japan, to effect enzymatic hydrolysis at 40° C. for 6 hours. HPLC analysis only detected glucose and trehalose in all resultant mixtures. The percentages and the molecular ratios of glucose to trehalose in each saccharide are in Table 5.

[1] = Reducing power on the Somogyi-Nelson's method expressed by DE; type: physicochemical; details: d.s.b.
Procedure: The reducing powders of these novel high-purity saccharides were determined on the Somogyi-Nelson's method and expressed by DE.

α-glucosidase = assay: Hydrolysis by α-glucosidase derived from rice; type: biochemical; details: pH 4.0, 37°C., 18 hours
Procedure: (§1) The enzymatic reaction with the α-amylase was as follows: Dissolve 10 mg of a substrate in one ml of 50 mM phosphate buffer (pH 6.9), mix the resultant solution with one unit of the α-amylase, and incubate the resultant mixture at 37° C. for 18 hours. The enzymatic reaction with the α-glucosidase was conducted under the same conditions as in the case of α-amylase except that 50 mM acetate buffer (pH 4.0) was used as a buffer. The enzymatic reaction using the rat intestinal acetone powder was carried out under the same conditions as in the case of α-amylase except that 50 mM maleate buffer (pH 6.0) was used as a buffer. The saccharide compositions obtained by the α-amylase, α-glucosidase and rat intestinal acetone powder are respectively in Tables 6, 7 and 8.

[2] = Acute toxicity test (Experiment 8); details: mouse, in vivo, po
Text: (§2) By using 7-week old dd-strain mice, the non-reducing saccharide preparation P I, P II, P III, P IV or P V was orally administered to the mice for acute toxicity test.

mice = assay: Acute toxicity test (Experiment 8); details: oral, highest possible doses
Text: as §2

α-amylase = assay: Hydrolysis by α-amylase derived from pig pancreas; type: in vitro ADME; details: for Saccharide composition of hydrolysate by α-amylase: G1 (glucose) / Saccharide composition of hydrolysate by α-amylase: G2 (maltose) / Saccharide composition of hydrolysate by α-amylase: G3 (maltotriose) / Saccharide composition of hydrolysate by α-amylase: P I / Saccharide composition of hydrolysate by α-amylase: P II: one unit, pH 6.9, 37°C., 18 hours
Procedure: as §1

[3] = Hydrolysis by rat intestinal acetone powder; type: in vitro ADME; details: pH 6.0, 37°C., 18 hours
Procedure: as §1

β-amylase = assay: Hydrolysis by β-amylase; type: biochemical
[4] = target: T1, trehalose-releasing enzyme (Rhizobium sp. M-11, UniProt Q53238); assay: Action of trehalose-releasing enzyme on α-glycosyltrehalose and maltooligosaccharides (Table 13); type: biochemical; details: 20% substrate, 2 units/g, 40°C., pH 7.0, 48 hours; label = substrate
T1 construct: M-11 culture
T1 sequence (Q53238 1-596): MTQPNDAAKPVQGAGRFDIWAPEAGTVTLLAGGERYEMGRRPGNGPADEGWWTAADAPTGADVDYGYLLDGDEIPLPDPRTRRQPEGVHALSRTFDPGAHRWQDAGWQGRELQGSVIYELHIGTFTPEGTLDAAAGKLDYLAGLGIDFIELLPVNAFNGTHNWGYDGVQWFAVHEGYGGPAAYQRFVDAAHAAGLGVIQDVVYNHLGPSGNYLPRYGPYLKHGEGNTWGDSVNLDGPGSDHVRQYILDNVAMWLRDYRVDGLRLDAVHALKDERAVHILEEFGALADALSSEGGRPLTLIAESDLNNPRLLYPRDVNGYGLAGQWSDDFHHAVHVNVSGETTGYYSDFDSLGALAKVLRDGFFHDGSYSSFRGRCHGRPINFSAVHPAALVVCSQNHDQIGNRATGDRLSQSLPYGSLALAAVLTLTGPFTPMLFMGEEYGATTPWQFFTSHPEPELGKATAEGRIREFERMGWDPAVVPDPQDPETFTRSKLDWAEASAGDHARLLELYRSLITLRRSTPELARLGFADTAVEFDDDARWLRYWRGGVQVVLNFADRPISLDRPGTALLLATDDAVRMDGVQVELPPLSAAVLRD
Procedure: An aqueous solution containing 20%, d.s.b., of one of the above 5 non-reducing saccharide preparations, namely α-glycosyltrehalose preparations, was prepared, followed by mixing it with 2 units/g substrate, d.s.b., of the purified trehalose-releasing enzyme obtained in Experiment 15, and subjecting the resultant to an enzymatic reaction at 40° C. and pH 7.0 for 48 hours. The resultant each reaction mixture was desalted, and analyzed for saccharide composition on HPLC using "WAKOBEADS WB-T-330 column", a column of Wako Pure Chemical Industries Ltd., Tokyo, Japan. As a control, a fresh preparation of the same trehalose-releasing enzyme was allowed to act on maltotriose, maltotetraose, maltopentaose, maltohexaose or maltoheptaose, and the resultant each reaction mixture was analyzed for saccharide composition on HPLC.

[5] = Maillard reaction with glycine, absorbance at 480 nm; type: physicochemical; details: for Coloration degree (480 nm): one % glycine, 10% saccharide, pH 7.0, 100°C., 90 min, 1-cm cell
Procedure: A solution, containing one % glycine and 10% of a saccharide preparation PI, P II, P III, P IV or P V in Experiment 4 and 50 mM phosphate buffer (pH 7.0), was kept at 100° C. for 90 min, followed by cooling the resultant solution, and determining for absorbance at a wave length of 480 nm in a 1-cm cell. As a control, maltotriose, maltotetraose, maltopentaose, maltohexaose and maltoheptaose, as a material for the saccharide preparations, were similarly treated as above, and measured for absorbance at a wave length of 480 nm.
A solution, containing one % of glycine, 10% of a high-purity trehalose preparation with a purity of 99.5%, d.s.b., obtained by the method in Experiment 17, and 50 mM phosphate buffer (pH 7.0), was kept at 100° C. for 90 min, followed by cooling the resultant solution and determining the absorbance at a wave length of 480 nm in a 1-cm cell. As a control, glucose and maltose were similarly treated as above, and the resultants were determined for absorbance at a wave length of 480 nm.

Row | Compound | Hydrolysis by glucoamylase (glucoamylase) | Glucose (glucoamylase) [%] | Molecular ratio (Glucose/Trehalose) (glucoamylase) | Trehalose (glucoamylase) [%] | DE (reducing power) [1] | Saccharide composition of hydrolysate by α-glucosidase: Glucose (α-glucosidase) [%] | Saccharide composition of hydrolysate by α-glucosidase: Other saccharides (α-glucosidase) [%] | Saccharide composition of hydrolysate by α-glucosidase: Trehalose (α-glucosidase) [%] | LD50 [2] [mg/kg] | Mortality (mice) | Hydrolysis by α-amylase (α-amylase) | Saccharide composition of hydrolysate by α-amylase: G1 (glucose) (α-amylase) | Saccharide composition of hydrolysate by α-amylase: G2 (maltose) (α-amylase) | Saccharide composition of hydrolysate by α-amylase: G3 (maltotriose) (α-amylase) | Saccharide composition of hydrolysate by α-amylase: P I (α-amylase) | Saccharide composition of hydrolysate by α-amylase: P II (α-amylase) | Saccharide composition of hydrolysate by rat intestinal acetone powder: Glucose [3] [%] | Saccharide composition of hydrolysate by rat intestinal acetone powder: Other saccharides [3] [%] | Saccharide composition of hydrolysate by rat intestinal acetone powder: Trehalose [3] [%] | Hydrolysis by β-amylase (β-amylase) | also measured
1 | OC[C@H]1O[C@H](O[C@H]2O[C@H](CO)[C@@H](O[C@H]3O[C@H](CO)[C@@H](O)[C@H](O)[C@H]3O)[C@H](O)[C@H]2O)[C@H](O)[C@@H](O)[C@@H]1O [P I, α-glucosyltrehalose] | hydrolyzed into one glucose molecule and one trehalose molecule | 36.2 | 1.07 | 63.8 | 0.83 | 36.5 | 0.5 | 63.0 | ≥ 50000 | no mouse died | not substantially hydrolyzed | 0 | 0.4 | 2.3 | 97.3 | 0 | 37.2 | 0.4 | 62.4 | not hydrolyzed | Percentage of reducing saccharide released (glucose, maltose, maltotriose, maltotetraose or maltopentaose) [4]: 6.5%; Percentage of trehalose released [4]: 17.5%; Coloration degree relative to corresponding material maltooligosaccharides [5]: 3-6%; Coloration degree (480 nm) [5]: 0.027
2 | OC[C@H]1O[C@H](O[C@H]2O[C@H](CO)[C@@H](O[C@H]3O[C@H](CO)[C@@H](O[C@H]4O[C@H](CO)[C@@H](O)[C@H](O)[C@H]4O)[C@H](O)[C@H]3O)[C@H](O)[C@H]2O)[C@H](O)[C@@H](O)[C@@H]1O [P II, α-maltosyltrehalose] | hydrolyzed into 2 glucose molecules and one trehalose molecule | 52.0 | 2.06 | 48.0 | 0.35 | 52.1 | 0.3 | 47.6 | ≥ 50000 | no mouse died | not substantially hydrolyzed | 0 | 0.8 | 0.4 | 0 | 98.8 | 52.5 | 0.4 | 47.1 | not hydrolyzed | Percentage of reducing saccharide released (glucose, maltose, maltotriose, maltotetraose or maltopentaose) [4]: 44.4%; Percentage of trehalose released [4]: 44.3%; Coloration degree relative to corresponding material maltooligosaccharides [5]: 3-6%; Coloration degree (480 nm) [5]: 0.018
3 | OC[C@H]1O[C@H](O[C@H]2O[C@H](CO)[C@@H](O[C@H]3O[C@H](CO)[C@@H](O[C@H]4O[C@H](CO)[C@@H](O[C@H]5O[C@H](CO)[C@@H](O)[C@H](O)[C@H]5O)[C@H](O)[C@H]4O)[C@H](O)[C@H]3O)[C@H](O)[C@H]2O)[C@H](O)[C@@H](O)[C@@H]1O [P III, α-maltotriosyltrehalose] | hydrolyzed into 3 glucose molecules and one trehalose molecule | 61.4 | 3.02 | 38.6 | 0.10 | 61.7 | 0.2 | 38.1 | ≥ 50000 | no mouse died | hydrolyzed by the α-amylase into lower molecular weight oligosaccharides | 1.2 | 33.0 | 0 | 61.0 | 4.8 | 62.0 | 0.4 | 37.6 | one maltose molecule and one P I molecule | Percentage of reducing saccharide released (glucose, maltose, maltotriose, maltotetraose or maltopentaose) [4]: 60.0%; Percentage of trehalose released [4]: 39.5%; Coloration degree relative to corresponding material maltooligosaccharides [5]: 3-6%; Coloration degree (480 nm) [5]: 0.012
4 | OC[C@H]1O[C@H](O[C@H]2O[C@H](CO)[C@@H](O[C@H]3O[C@H](CO)[C@@H](O[C@H]4O[C@H](CO)[C@@H](O[C@H]5O[C@H](CO)[C@@H](O[C@H]6O[C@H](CO)[C@@H](O)[C@H](O)[C@H]6O)[C@H](O)[C@H]5O)[C@H](O)[C@H]4O)[C@H](O)[C@H]3O)[C@H](O)[C@H]2O)[C@H](O)[C@@H](O)[C@@H]1O [P IV, α-maltotetraosyltrehalose] | hydrolyzed into 4 glucose molecules and one trehalose molecule | 68.3 | 4.09 | 31.7 | 0.27 | 69.5 | 0.3 | 30.2 | ≥ 50000 | no mouse died | hydrolyzed by the α-amylase into lower molecular weight oligosaccharides | 1.6 | 7.5 | 40.4 | 47.2 | 3.3 | 68.8 | 0.4 | 30.8 | one maltose molecule and one P II molecule | Percentage of reducing saccharide released (glucose, maltose, maltotriose, maltotetraose or maltopentaose) [4]: 65.5%; Percentage of trehalose released [4]: 34.2%; Coloration degree relative to corresponding material maltooligosaccharides [5]: 3-6%; Coloration degree (480 nm) [5]: 0.016
